Laboratory results published in ChEMBL document CHEMBL4651402, “Screening of ~5500 FDA-approved drugs and clinical candidates for anti-SARS-CoV-2 activity” (2021).

Key:
SARS-CoV-2 [1] = assay: microbe, parasite or virus in culture; details: Severe acute respiratory syndrome coronavirus 2, Vero C1008, 48 h
in vitro = details: chlorocebus sabaeus
SARS-CoV-2 [2] = assay: microbe, parasite or virus in culture; assay type: functional, organism-based, Chlorocebus sabaeus, Vero C1008; details: Severe acute respiratory syndrome coronavirus 2, Vero C1008, 48 h
[3] = Vero E6 (Vero C1008) cells, CC50
[4] = Vero E6 (Vero C1008) cells, pCC50

| Structure (SMILES) | IC50 (SARS-CoV-2 [1]) [µM] | IC50 (SARS-CoV-2 [1]; read-out: pIC50 (converted)) [µM] | CC50 at 48 h (in vitro; [3]) [µM] | CC50 at 48 h (in vitro; [4]) [µM] | IC50 (SARS-CoV-2 [2]; read-out: IC50) [µM] | IC50 (SARS-CoV-2 [2]; read-out: pIC50 (converted)) [µM] | CC50 at 48 h (in vitro; vero c1008, CC50) [µM] | CC50 at 48 h (in vitro; vero c1008, pCC50) [µM] |
| --- | --- | --- | --- | --- | --- | --- | --- | --- |
| OC1(c2ccc(Cl)c(C(F)(F)F)c2)CCN(CCCC(c2ccc(F)cc2)c2ccc(F)cc2)CC1 [PENFLURIDOL] | > 100 | > 100 | 3.59 | 3.55 | > 100 | > 100 | – | – |
| CC(C)(C)c1ccc(CN2CCN(C(c3ccccc3)c3ccc(Cl)cc3)CC2)cc1 (stereo not drawn) [BUCLIZINE] | > 100 | > 100 | 81.3 | 81.3 | 20.4 | 20.4 | – | – |
| Cc1nc2ccccn2c(=O)c1CCN1CCC(=C(c2ccc(F)cc2)c2ccc(F)cc2)CC1 [SEGANSERIN] | 7.59 | 7.59 | 10.2 | 10.2 | > 100 | > 100 | – | – |
| O=C1c2c(O)cccc2Cc2cccc(O)c21 [ANTHRALIN] | > 100 | > 100 | > 100 | > 100 | > 100 | > 100 | – | – |
| CCN(CC)CCNC(=O)c1cc(Cl)c(NC(=O)COc2ccc(Cl)cc2)cc1OC [CLOXACEPRIDE] | 3.63 | 3.63 | 2.85 | 2.82 | > 100 | > 100 | – | – |
| CNCCCCOc1ccccc1Cc1ccccc1 [BIFEMELANE] | > 100 | > 100 | – | – | 20.9 | 20.9 | 26.9 | 26.9 |
| CN(C)S(=O)(=O)c1ccc2c(c1)N(CCCN1CCC(CCO)CC1)c1ccccc1S2 [PIPOTIAZINE] | 13.8 | 13.8 | – | 7.24 | > 100 | > 100 | – | – |
| O=c1[nH]c2ccccc2n1CCCN1CCN(C(c2ccccc2)c2ccccc2)CC1 [OXATOMIDE] | > 100 | > 100 | ~12.6 | ~12.6 | > 100 | > 100 | – | – |
| COc1cc2c(N3CCN(C(=O)Nc4ccc(OC(C)C)cc4)CC3)ncnc2cc1OCCCN1CCCCC1 [TANDUTINIB] | > 100 | > 100 | 11.5 | 11.5 | > 100 | > 100 | – | – |
| NC(CO)(CO)CCc1ccc(Sc2cccc(OCc3ccccc3)c2)cc1Cl [MOCRAVIMOD] | 3.31 | 3.31 | 3.06 | 3.02 | > 100 | > 100 | – | – |
| COc1cc2c(cc1OC)C(c1cccc(Cl)c1)=NN=C(C)C2 [GIRISOPAM] | > 100 | > 100 | > 100 | > 100 | > 100 | > 100 | – | – |
| CCN(CC)CCCNc1cc(OC)cc2cccnc12 | 24.6 | 24.5 | > 100 | > 100 | > 100 | > 100 | – | – |
| CNCc1ccc(C)c(NC(=O)c2ccc(Nc3nc(-c4ccccc4)c4ccccc4n3)cc2)c1 [BMS-833923] | 2.95 | 2.95 | 3.09 | 3.09 | > 100 | > 100 | – | – |
| COC(=O)C1C2CC3c4[nH]c5cc(OC)ccc5c4CCN3CC2CC(OC(=O)/C=C/c2cc(OC)c(OC)c(OC)c2)C1OC (stereo not drawn) | > 50.1 | > 50.1 | 5.5 | 5.5 | > 100 | > 100 | – | – |
| COc1cc(C(=O)OCCN2CCN(CCCN3c4ccccc4Sc4ccc(Cl)cc43)CC2)cc(OC)c1OC [METOFENAZATE] | 18.6 | 18.6 | > 100 | > 100 | > 100 | > 100 | – | – |
| CN(C)CCCN1c2ccccc2Sc2ccccc21 [PROMAZINE] | 16.2 | 16.2 | 25.7 | 25.7 | > 100 | > 100 | – | – |
| OC(Cn1cncn1)(Cn1cnc(/C=C/c2ccc(OCC(F)(F)C(F)F)cc2)n1)c1ccc(F)cc1F (stereo not drawn) | > 100 | > 100 | 25.7 | 25.7 | > 100 | > 100 | – | – |
| C=C1CC[C@@H]2[C@](C)(CO)[C@H](O)CC[C@@]2(C)[C@@H]1C/C=C1/C(=O)OC[C@H]1O [ANDROGRAPHOLIDE] | > 100 | > 100 | ~21.6 | ~21.4 | > 100 | > 100 | – | – |
| CCCCCCC(C)(C)c1cc(O)c([C@H]2CC(=O)[C@H]3C[C@@H]2C3(C)C)c(OC(=O)/C=C/C(=O)O)c1 [PRS-211375] | > 100 | > 100 | 7.67 | 7.59 | > 50.1 | > 50.1 | – | – |
| CNCCCC1c2ccccc2C=Cc2ccccc21 [PROTRIPTYLINE] | > 100 | > 100 | – | – | > 100 | > 100 | 26.3 | 26.3 |

| Structure (SMILES) | IC50 (SARS-CoV-2 [1]) [µM] | IC50 (SARS-CoV-2 [1]; read-out: pIC50 (converted)) [µM] | CC50 at 48 h (in vitro; [3]) [µM] | CC50 at 48 h (in vitro; [4]) [µM] | IC50 (SARS-CoV-2 [2]; read-out: IC50) [µM] | IC50 (SARS-CoV-2 [2]; read-out: pIC50 (converted)) [µM] | CC50 at 48 h (in vitro; vero c1008, CC50) [µM] | CC50 at 48 h (in vitro; vero c1008, pCC50) [µM] |
| --- | --- | --- | --- | --- | --- | --- | --- | --- |
| CN1CCC(CN2c3ccccc3Sc3ccccc32)C1 (stereo not drawn) [METHDILAZINE] | 16.2 | 16.2 | 14.8 | 14.8 | > 100 | > 100 | – | – |
| O=c1ccc2ccc(OCCCCN3CCN(c4cccc5sccc45)CC3)cc2[nH]1 [BREXPIPRAZOLE] | > 100 | > 100 | 12 | 12 | > 100 | > 100 | – | – |
| CNCCC=C1c2ccccc2CCc2ccccc21 [NORTRIPTYLINE] | 15.9 | 15.8 | – | – | > 100 | > 100 | 24 | 24 |
| Clc1cnn(CCCCN2CCN(c3ncccn3)CC2)c1 [LESOPITRON] | 2.34 | 2.34 | > 100 | > 100 | > 100 | > 100 | – | – |
| CC(=O)c1ccc2c(c1)N(CCCN1CCC(CCO)CC1)c1ccccc1S2 [PIPERACETAZINE] | 16.2 | 16.2 | 12.2 | 12 | > 12.6 | > 12.6 | – | – |
| CCOC(=O)Oc1c(OC)cc(C(=O)OC2CC3CN4CCc5c([nH]c6cc(OC)ccc56)C4CC3C(C(=O)OC)C2OC)cc1OC (stereo not drawn) | > 100 | > 100 | 8.91 | 8.91 | > 100 | > 100 | – | – |
| CN1CCC(=C2c3ccccc3Oc3ccc(Cl)cc32)CC1 [CLOPIPAZAN] | > 20 | > 20 | 15 | 14.8 | > 100 | > 100 | – | – |
| CC(CN1c2ccccc2Sc2ccccc21)N(C)C (stereo not drawn) [PROMETHAZINE] | 21.9 | 21.9 | 33.1 | 33.1 | > 100 | > 100 | – | – |
| CNCCC=C1c2ccccc2C=Cc2ccccc21 | > 50.1 | > 50.1 | 23.4 | 23.4 | > 50.1 | > 50.1 | – | – |
| CCN(CC)CCNC(=O)c1ccc(NS(C)(=O)=O)cc1 [SEMATILIDE] | 3.89 | 3.89 | > 100 | > 100 | > 100 | > 100 | – | – |
| CO[C@H]1CC[C@H](n2c([C@@H]3CCCC(=O)N3c3ccc(F)c(F)c3)nc3cc(-c4c(C)noc4C)ccc32)CC1 [INOBRODIB] | > 100 | > 100 | 3.16 | 3.16 | > 100 | > 100 | – | – |
| CN[C@@H]1C[C@@H](c2ccc(Cl)c(Cl)c2)c2ccccc21 [(R,S)-INDATRALINE] | 8.32 | 8.32 | 8.51 | 8.51 | > 100 | > 100 | – | – |
| COC(=O)N[C@H](C(=O)N1CCC[C@H]1c1ncc(-c2ccc(-c3ccc(-c4cnc([C@@H]5CCCN5C(=O)[C@@H](NC(=O)OC)C(C)C)[nH]4)cc3)cc2)[nH]1)C(C)C | > 100 | > 100 | ~19.7 | ~19.5 | > 100 | > 100 | – | – |
| COc1ccccc1OCCNCC(O)COc1cccc2[nH]c3ccccc3c12 (stereo not drawn) [CARVEDILOL] | 15.5 | 15.5 | 17 | 17 | 10 | 10 | – | – |
| CN1CCN(CCCN2c3ccccc3Sc3ccccc32)CC1 [PERAZINE] | 14 | 13.8 | 14.6 | 14.5 | > 100 | > 100 | – | – |
| O=C(O)CCc1nc(-c2ccccc2)c(-c2ccccc2)o1 [OXAPROZIN] | 11.8 | 11.7 | > 50.1 | > 50.1 | > 50.1 | > 50.1 | – | – |
| CC(=O)NC1(c2ccccc2)CCN(CCC(CN(C)C(=O)c2ccccc2)c2ccc(Cl)c(Cl)c2)CC1 (stereo not drawn) | > 100 | > 100 | 23.4 | 23.4 | > 100 | > 100 | – | – |
| COC(=O)C1C2CC3c4[nH]c5ccccc5c4CCN3CC2CC(OC(=O)c2cc(OC)c(OC)c(OC)c2)C1OC (stereo not drawn) | > 20 | > 20 | 11.5 | 11.5 | > 25.1 | > 25.1 | – | – |
| O=C1NC2CCCCN2C12CCN(CCCN1c3ccccc3CCc3ccc(Cl)cc31)CC2 (stereo not drawn) [MOSAPRAMINE] | 7.41 | 7.41 | 8.13 | 8.13 | > 100 | > 100 | – | – |
